Source: patent US11345712B2, “Protein-targeting compounds and pharmaceutical compositions thereof, and their therapeutic applications” (BioTheryX, Inc., priority 2019, dated 2022)

The compounds below were run on MOLM-13 cells (assay: MOLM-13 cell viability assay (CellTiter-Glo)). Conditions: Homo sapiens, MOLM-13, 72 h, 3 days, concentration of 1 μM, read-out: Antiproliferative Activity (inhibition, MOLM-13 cell viability).
Format: cell-based
Description: MOLM-13 cells were cultured in RPMI 1640 media supplemented with 10% fetal bovine serum, streptomycin, and penicillin. The cells were plated in white walled 96-well plates at 2,500 cells/well. The cells were incubated in DMSO (control) or an indicated compound for 3 days at 37° C. and 5% CO2. Following the incubation period, 100 μL of CELLTITER-GLO® (CTG) reagent was added to each well. Following a 10 minutes incubation with shaking, luminescence was measured using an ENVISION® Multimode plate reader.

**Q.** For Cc1ccc(C(=O)C(=O)NCc2scc3c2CN(C2CCC(=O)NC2=O)C3=O)cc1Cl (centres unmarked) [Compound I-6, 2-(3-chloro-4-methylphenyl)-N-((5-(2,6-dioxopiperidin-3-yl)-4-oxo-5,6-dihydro-4H-thieno[3,4-c]pyrrol-1-yl)methyl)-2-oxoacetamide], which cytotoxicity at 1 µM is on record?
**A.** 25 to 50%

**Q.** Which cytotoxicity at 1 µM does the source give for CN(C)c1ccc(C(=O)C(=O)NCc2scc3c2CN(C2CCC(=O)NC2=O)C3=O)cc1 (centres unmarked) [Compound I-7, 2-(4-dimethylaminophenyl)-N-((5-(2,6-dioxopiperidin-3-yl)-4-oxo-5,6-dihydro-4H-thieno[3,4-c]pyrrol-1-yl)methyl)-2-oxoacetamide] here?
**A.** < 25%

**Q.** For O=C1CCC(N2Cc3c(csc3CNC(=O)C(=O)c3ccccc3)C2=O)C(=O)N1 (centres unmarked) [Compound I-8, 2-phenyl-N-((5-(2,6-dioxopiperidin-3-yl)-4-oxo-5,6-dihydro-4H-thieno[3,4-c]pyrrol-1-yl)methyl)-2-oxoacetamide], which cytotoxicity at 1 µM is on record?
**A.** < 25%

**Q.** How did the cytotoxicity at 1 µM turn out when O=C1CCC(N2Cc3c(csc3CNC(=O)C(=O)c3cccs3)C2=O)C(=O)N1 (centres unmarked) [Compound I-9, N-((5-(2,6-dioxopiperidin-3-yl)-4-oxo-5,6-dihydro-4H-thieno[3,4-c]pyrrol-1-yl)methyl)-2-(thiophen-2-yl)-2-oxoacetamide] was run?
**A.** < 25%

**Q.** How did the cytotoxicity at 1 µM turn out when CC(C)(C)c1ccc(C(=O)C(=O)NCc2ccc3c(c2)CN([C@H]2CCCC(=O)NC2=O)C3=O)cc1 [Compound I-10, (S)-2-(4-(tert-butyl)phenyl)-N-((2-(2,7-dioxoazepan-3-yl)-1-oxoisoindolin-5-yl)methyl)-2-oxoacetamide] was run?
**A.** > 80%

**Q.** How did the cytotoxicity at 1 µM turn out when COc1ccc(C(=O)C(=O)NCc2scc3c2CN(C2CCC(=O)NC2=O)C3=O)cc1 (centres unmarked) [Compound I-11, 2-(4-methoxyphenyl)-N-((5-(2,6-dioxopiperidin-3-yl)-4-oxo-5,6-dihydro-4H-thieno[3,4-c]pyrrol-1-yl)methyl)-2-oxoacetamide] was run?
**A.** < 25%

**Q.** For O=C1CCC(N2Cc3c(csc3CNC(=O)C(=O)c3ccc(C4CC4)cc3)C2=O)C(=O)N1 (centres unmarked) [Compound I-12, 2-(4-cyclopropylphenyl)-N-((5-(2,6-dioxopiperidin-3-yl)-4-oxo-5,6-dihydro-4H-thieno[3,4-c]pyrrol-1-yl)methyl)-2-oxoacetamide], which cytotoxicity at 1 µM is on record?
**A.** < 25%

**Q.** How did the cytotoxicity at 1 µM turn out when CC(C)(C)c1ccc(C(=O)C(=O)NCc2scc3c2C(=O)N(C2CCC(=O)NC2=O)C3=O)cc1 (centres unmarked) [Compound I-13, 2-(4-(tert-butyl)phenyl)-N-((5-(2,6-dioxopiperidin-3-yl)-4,6-dioxo-5,6-dihydro-4H-thieno[3,4-c]pyrrol-1-yl)methyl)-2-oxoacetamide] was run?
**A.** < 25%

**Q.** CC(C)c1ccc(C(=O)C(=O)NCc2scc3c2CN(C2CCC(=O)NC2=O)C3=O)cc1 (centres unmarked) [Compound I-14, 2-(4-isopropylphenyl)-N-((5-(2,6-dioxopiperidin-3-yl)-4-oxo-5,6-dihydro-4H-thieno[3,4-c]pyrrol-1-yl)methyl)-2-oxoacetamide] was tested. Which cytotoxicity at 1 µM did it give?
**A.** 25 to 50%

**Q.** CCC(C)c1ccc(C(=O)C(=O)NCc2scc3c2CN(C2CCC(=O)NC2=O)C3=O)cc1 (centres unmarked) [Compound I-15, 2-(4-(sec-butyl)phenyl)-N-((5-(2,6-dioxopiperidin-3-yl)-4-oxo-5,6-dihydro-4H-thieno[3,4-c]pyrrol-1-yl)methyl)-2-oxoacetamide] was tested. Which cytotoxicity at 1 µM did it give?
**A.** 25 to 50%

**Q.** How did the cytotoxicity at 1 µM turn out when O=C1CCC(N2Cc3c(csc3CNC(=O)C(=O)c3ccc(O)cc3)C2=O)C(=O)N1 (centres unmarked) [Compound I-16, 2-(4-hydroxyphenyl)-N-((5-(2,6-dioxopiperidin-3-yl)-4-oxo-5,6-dihydro-4H-thieno[3,4-c]pyrrol-1-yl)methyl)-2-oxoacetamide] was run?
**A.** < 25%

**Q.** How did the cytotoxicity at 1 µM turn out when Cc1ccc(C(=O)C(=O)NCc2scc3c2CN(C2CCC(=O)NC2=O)C3=O)cc1 (centres unmarked) [Compound I-17, 2-(4-methylphenyl)-N-((5-(2,6-dioxopiperidin-3-yl)-4-oxo-5,6-dihydro-4H-thieno[3,4-c]pyrrol-1-yl)methyl)-2-oxoacetamide] was run?
**A.** < 25%

**Q.** For O=C1CCC(N2Cc3c(csc3CNC(=O)C(=O)c3ccc(Cl)cc3)C2=O)C(=O)N1 (centres unmarked) [Compound I-18, 2-(4-chlorophenyl)-N-((5-(2,6-dioxopiperidin-3-yl)-4-oxo-5,6-dihydro-4H-thieno[3,4-c]pyrrol-1-yl)methyl)-2-oxoacetamide], which cytotoxicity at 1 µM is on record?
**A.** < 25%

**Q.** Which cytotoxicity at 1 µM does the source give for CC(C)(C)c1cccc(C(=O)C(=O)NCc2scc3c2CN(C2CCC(=O)NC2=O)C3=O)c1 (centres unmarked) [Compound I-19, 2-(3-tert-butylphenyl)-N-((5-(2,6-dioxopiperidin-3-yl)-4-oxo-5,6-dihydro-4H-thieno[3,4-c]pyrrol-1-yl)methyl)-2-oxoacetamide] here?
**A.** > 80%

**Q.** CC(=O)Nc1ccc(C(=O)C(=O)NCc2scc3c2CN(C2CCC(=O)NC2=O)C3=O)cc1 (centres unmarked) [Compound I-20, 2-(4-acetamidophenyl)-N-((5-(2,6-dioxopiperidin-3-yl)-4-oxo-5,6-dihydro-4H-thieno[3,4-c]pyrrol-1-yl)methyl)-2-oxoacetamide] was tested. Which cytotoxicity at 1 µM did it give?
**A.** < 25%

**Q.** O=C1CCC(N2Cc3c(csc3CNC(=O)C(=O)c3ccc(-c4ccccc4)cc3)C2=O)C(=O)N1 (centres unmarked) [Compound I-21, 2-([1,1′-biphenyl]-4-yl)-N-((5-(2,6-dioxopiperidin-3-yl)-4-oxo-5,6-dihydro-4H-thieno[3,4-c]pyrrol-1-yl)methyl)-2-oxoacetamide] was tested. Which cytotoxicity at 1 µM did it give?
**A.** 25 to 50%

**Q.** For O=C1CCC(N2Cc3c(csc3CNC(=O)C(=O)c3ccc(F)cc3)C2=O)C(=O)N1 (centres unmarked) [Compound I-22, 2-(4-fluorophenyl)-N-((5-(2,6-dioxopiperidin-3-yl)-4-oxo-5,6-dihydro-4H-thieno[3,4-c]pyrrol-1-yl)methyl)-2-oxoacetamide], which cytotoxicity at 1 µM is on record?
**A.** < 25%

**Q.** With O=C1CCC(N2Cc3c(csc3CNC(=O)C(=O)c3ccc(C(F)(F)F)cc3)C2=O)C(=O)N1 (centres unmarked) [Compound I-23, 2-(4-trifluoromethylphenyl)-N-((5-(2,6-dioxopiperidin-3-yl)-4-oxo-5,6-dihydro-4H-thieno[3,4-c]pyrrol-1-yl)methyl)-2-oxoacetamide] as the compound, how does the cytotoxicity at 1 µM read?
**A.** < 25%

**Q.** O=C1CCC(N2Cc3c(csc3CNC(=O)C(=O)c3ccc(Cl)c(Cl)c3)C2=O)C(=O)N1 (centres unmarked) [Compound I-24, 2-(3,4-dichlorophenyl)-N-((5-(2,6-dioxopiperidin-3-yl)-4-oxo-5,6-dihydro-4H-thieno[3,4-c]pyrrol-1-yl)methyl)-2-oxoacetamide] was tested. Which cytotoxicity at 1 µM did it give?
**A.** 25 to 50%

**Q.** CN(C)Cc1ccc(C(=O)C(=O)NCc2scc3c2CN(C2CCC(=O)NC2=O)C3=O)cc1 (centres unmarked) [Compound I-25, 2-(4-((dimethylamino)methyl)phenyl)-N-((5-(2,6-dioxopiperidin-3-yl)-4-oxo-5,6-dihydro-4H-thieno[3,4-c]pyrrol-1-yl)methyl)-2-oxoacetamide] was tested. Which cytotoxicity at 1 µM did it give?
**A.** < 25%

**Q.** O=C1CCC(N2Cc3c(csc3CNC(=O)C(=O)c3ccc(CN4CCOCC4)cc3)C2=O)C(=O)N1 (centres unmarked) [Compound I-26, 2-(4-(morpholinomethyl)phenyl)-N-((5-(2,6-dioxopiperidin-3-yl)-4-oxo-5,6-dihydro-4H-thieno[3,4-c]pyrrol-1-yl)methyl)-2-oxoacetamide] was tested. Which cytotoxicity at 1 µM did it give?
**A.** < 25%

**Q.** Which cytotoxicity at 1 µM does the source give for Cc1cc(C(=O)C(=O)NCc2scc3c2CN(C2CCC(=O)NC2=O)C3=O)ccc1C(C)(C)C (centres unmarked) [Compound I-27, 2-(3-methyl-4-(tert-butyl)phenyl)-N-((5-(2,6-dioxopiperidin-3-yl)-4-oxo-5,6-dihydro-4H-thieno[3,4-c]pyrrol-1-yl)methyl)-2-oxoacetamide] here?
**A.** > 80%

**Q.** With CC(C)(C)c1ccc(C(=O)C(=O)NCc2cccc3c2CN(C2CCC(=O)NC2=O)C3=O)cc1 (centres unmarked) [Compound I-28, 2-(4-(tert-butyl)phenyl)-N-((2-(2,6-dioxopiperidin-3-yl)-1-oxoisoindolin-4-yl)methyl)-2-oxoacetamide] as the compound, how does the cytotoxicity at 1 µM read?
**A.** > 80%

**Q.** For CC(C)(C)c1ccc(C(=O)C(=O)NCc2cc(F)cc3c2CN(C2CCC(=O)NC2=O)C3=O)cc1 (centres unmarked) [Compound I-29, 2-(4-(tert-butyl)phenyl)-N-((2-(2,6-dioxopiperidin-3-yl)-6-fluoro-1-oxoisoindolin-4-yl)methyl)-2-oxoacetamide], which cytotoxicity at 1 µM is on record?
**A.** > 80%

**Q.** With O=C1CCC(N2Cc3c(CNC(=O)C(=O)c4ccc(C5(C(F)(F)F)CC5)cc4)cccc3C2=O)C(=O)N1 (centres unmarked) [Compound I-30, N-((2-(2,6-dioxopiperidin-3-yl)-1-oxoisoindolin-4-yl)methyl)-2-oxo-2-(4-(1-(trifluoromethyl)cyclopropyl)phenyl)acetamide] as the compound, how does the cytotoxicity at 1 µM read?
**A.** > 80%

**Q.** Which cytotoxicity at 1 µM does the source give for CN1CCC(c2ccc(C(=O)C(=O)NCc3scc4c3CN(C3CCC(=O)NC3=O)C4=O)cc2)CC1 (centres unmarked) [Compound I-31, N-((5-(2,6-dioxopiperidin-3-yl)-4-oxo-5,6-dihydro-4H-thieno[3,4-c]pyrrol-1-yl)methyl)-2-(4-(1-methylpiperidin-4-yl)phenyl)-2-oxoacetamide] here?
**A.** < 25%

**Q.** Which cytotoxicity at 1 µM does the source give for CC(C)(C)c1ccc(C(=O)C(=O)NCc2ccc3c(c2)C(=O)N(C2CCC(=O)NC2=O)C3=O)cc1 (centres unmarked) [Compound I-32, 2-(4-(tert-butyl)phenyl)-N-((2-(2,6-dioxopiperidin-3-yl)-1,3-dioxoisoindolin-5-yl)methyl)-2-oxoacetamide] here?
**A.** > 80%

**Q.** Which cytotoxicity at 1 µM does the source give for CC(C)(C)c1cccc(C(=O)C(=O)NCc2ccc3c(c2)CN(C2CCC(=O)NC2=O)C3=O)c1 (centres unmarked) [Compound I-33, 2-(3-(tert-butyl)phenyl)-N-((2-(2,6-dioxopiperidin-3-yl)-1-oxoisoindolin-5-yl)methyl)-2-oxoacetamide] here?
**A.** > 80%

**Q.** With CN(Cc1ccc2c(c1)CN(C1CCC(=O)NC1=O)C2=O)C(=O)C(=O)c1ccc(C(C)(C)C)cc1 (centres unmarked) [Compound I-34, 2-(4-(tert-butyl)phenyl)-N-((2-(2,6-dioxopiperidin-3-yl)-1-oxoisoindolin-5-yl)methyl)-N-methyl-2-oxoacetamide] as the compound, how does the cytotoxicity at 1 µM read?
**A.** < 25%
